Experimental data published in US20260125375A1 (Pfizer Inc., priority 2022, published 2026).
Read-outs that look alike come from different tables or passages of the source.

Key:
CBL-B (residues 36-427) = molecular target: T1, CBL-B (residues 36-427) (Homo sapiens, UniProt Q13191); experiment: Ligand Displacement Assay (LDA), HTRF competitive binding against BODIPY-labeled fluorescent tracer, CBL-B; conditions: geometric mean of the number of tests, read-out: CBL-B Ki (nM) GMean
T1 construct: Purified CBL-B (residues 36-427) and C-CBL (residues 46-435) proteins from baculovirus-infected insect cells; made in house; host or cells: baculovirus-infected insect cells
Method in brief: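 Ki values, given as geometric means of repeated tests, come from TR-FRET displacement of a BODIPY-labelled tracer from terbium-streptavidin-bound, AviTag-biotinylated protein made in baculovirus-infected insect cells. Compounds ran as three-fold dilutions in duplicate, […], 2% DMSO.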

WT CBL-B (36-427) = molecular target: T2, WT CBL-B (36-427) (Homo sapiens, UniProt Q13191); experiment: Surface Plasmon Resonance (SPR) assay, binding affinity and kinetics, CBL-B; conditions: SPR at 10° C., biotinylated WT CBL-B (36-427) on streptavidin chip; geometric mean; read-out: CBL-B SPR Kd (nM) GMean
T2 construct: N-terminal biotinylated WT CBL-B (36-427) and C-CBL (46-435) were captured on a streptavidin (SA) coated sensor chip
Method in brief: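 SPR kinetics at 10° C, run either single-cycle (0.001–1 μM, 3-fold, 6 points, 120 s on, >5400 s off) or multi-cycle (10 points, 2-fold, top 10 or 100 μM, 90 s on). Proteins were N-biotinylated CBL-B (36-427) and C-CBL (46-435) on SA surfaces, in pH 7.2 HEPES, 2% DMSO.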

CBL-B = molecular target: T3, CBL-B (Homo sapiens, UniProt Q13191); experiment: Jurkat HiBit-IL2 assay (c-CBL KO), reporter cell line expressing CBL-B only; assay type: cell-based; conditions: geometric mean, read-out: C-CBL KO EC50 (nM) GMean
T3 construct: endogenous in cells; host or cells: Jurkat HiBit-IL2 reporter cells, C-CBL knocked out by CRISPR
Method in brief: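 IL-2 secretion was measured by HiBiT luminescence after 1 h compound exposure (0.1% DMSO) and 4 h TCR/CD28 stimulation (final anti-CD3 1 μg/ml, anti-CD28 2 μg/ml, 37 °C) of Jurkat reporters lacking c-CBL or CBL-B. EC50 came from fold-of-effect versus stimulated-only cells, as geometric means across tests.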

[1] = C-CBL KO (expressing CBL-B only), Table 16b (further repetition)
[2] = c-CBL KO (CBL-B only), anti-CD3/anti-CD28 stimulation 4 hours, Table 16a

SMILES	Ki (CBL-B (residues 36-427)) [nM]	Kd (WT CBL-B (36-427)) [nM]	EC50 (CBL-B; [1]) [nM]	EC50 (CBL-B; [2]) [nM]
CCNC(C)c1nc(C(F)(F)F)cc2c(-c3cccc([C@H](c4nncn4C)C4CCC4)c3)n[nH]c12 (single isomer, unassigned) [Example C89]	8	4.1	85	–
C[C@@H](N[C@H]1C[C@H](O)C1)c1nc(C(F)(F)F)cc2c(-c3cccc([C@H](c4nncn4C)C4CCC4)c3)n[nH]c12 (single isomer, unassigned) [Example C92]	4.4	2.7	113	–
C[C@H](N[C@H]1C[C@@H](F)C1)c1nc(C(F)(F)F)cc2c(-c3cccc([C@H](c4nncn4C)C4CCC4)c3)n[nH]c12 (single isomer, unassigned) [Example C95]	4.7	2.3	53	–
C[C@@H](N[C@H]1C[C@@H](F)C1)c1nc(C(F)(F)F)cc2c(-c3cccc([C@H](c4nncn4C)C4CCC4)c3)n[nH]c12 (single isomer, unassigned) [Example C96]	9.2	3.3	76	–
C[C@H](N[C@@H]1CCOC1)c1nc(C(F)(F)F)cc2c(-c3cccc([C@H](c4nncn4C)C4CCC4)c3)n[nH]c12 (single isomer, unassigned) [Example D2]	5.8	3.8	83	42
C[C@@H](N[C@@H]1CCOC1)c1nc(C(F)(F)F)cc2c(-c3cccc([C@H](c4nncn4C)C4CCC4)c3)n[nH]c12 (single isomer, unassigned) [Example D3]	6	4	67	47
C[C@@H](c1nc(C(F)(F)F)cc2c(-c3cccc(C4(Cc5nncn5C)COC4)c3)n[nH]c12)N1CCC(F)(F)C1 (single isomer, unassigned) [Example D5]	32.7	21.9	–	650
C[C@H](c1nc(C(F)(F)F)cc2c(-c3cccc(C4(Cc5nncn5C)COC4)c3)n[nH]c12)N1CCC(F)(F)C1 (single isomer, unassigned) [Example D6]	4.6	1.8	–	64
C[C@@H](c1nc(C(F)(F)F)cc2c(-c3cccc(C4(Cc5nncn5C)COC4)c3)n[nH]c12)N1C[C@H](F)[C@@H](F)C1 (single isomer, unassigned) [Example D7]	7.4	2.3	–	80
C[C@H](c1nc(C(F)(F)F)cc2c(-c3cccc(C4(Cc5nncn5C)COC4)c3)n[nH]c12)N1C[C@H](F)[C@@H](F)C1 (single isomer, unassigned) [Example D8]	25.4	15.8	–	603
C[C@@H](c1nc(C(F)(F)F)cc2c(-c3cccc(C4(Cc5nncn5C)COC4)c3)n[nH]c12)N1CC[C@@H](F)C1 (single isomer, unassigned) [Example D9]	17.4	8.3	–	627
C[C@H](c1nc(C(F)(F)F)cc2c(-c3cccc(C4(Cc5nncn5C)COC4)c3)n[nH]c12)N1CC[C@@H](F)C1 (single isomer, unassigned) [Example D10]	6.6	2.8	–	102
C[C@H]1CN([C@@H](C)c2nc(C(F)(F)F)cc3c(-c4cccc(C5(Cc6nncn6C)COC5)c4)n[nH]c23)CCO1 (single isomer, unassigned) [Example D11]	7.4	4.2	–	143
C[C@H](c1nc(C(F)(F)F)cc2c(-c3cccc(C4(Cc5nncn5C)COC4)c3)n[nH]c12)N1CCO[C@@H](C)C1 (single isomer, unassigned) [Example D12]	15.3	6.6	–	612
C[C@@H]1CCCN([C@@H](C)c2nc(C(F)(F)F)cc3c(-c4cccc(C5(Cc6nncn6C)COC5)c4)n[nH]c23)C1 (single isomer, unassigned) [Example D13]	15	3.5	–	149
C[C@@H]1CCCN([C@H](C)c2nc(C(F)(F)F)cc3c(-c4cccc(C5(Cc6nncn6C)COC5)c4)n[nH]c23)C1 (single isomer, unassigned) [Example D14]	42.9	11.1	–	354
C[C@H](N[C@@H]1CCC[C@@H]1O)c1nc(C(F)(F)F)cc2c(-c3cccc([C@H](c4nncn4C)C4CCC4)c3)n[nH]c12 (single isomer, unassigned) [Example D15]	0.9	2.5	4	3
C[C@@H](N[C@@H]1CCC[C@@H]1O)c1nc(C(F)(F)F)cc2c(-c3cccc([C@H](c4nncn4C)C4CCC4)c3)n[nH]c12 (single isomer, unassigned) [Example D16]	2.5	3.6	–	18
C[C@H](O)CN[C@@H](C)c1nc(C(F)(F)F)cc2c(-c3cccc([C@H](c4nncn4C)C4CCC4)c3)n[nH]c12 (single isomer, unassigned) [Example D19]	1	1.6	24	9
C[C@@H](N[C@H]1CC[C@@H]1O)c1nc(C(F)(F)F)cc2c(-c3cccc([C@H](c4nncn4C)C4CCC4)c3)n[nH]c12 (single isomer, unassigned) [Example D22]	0.8	1.5	12	5
C[C@H](N[C@@H]1CC[C@@H]1O)c1nc(C(F)(F)F)cc2c(-c3cccc([C@H](c4nncn4C)C4CCC4)c3)n[nH]c12 (single isomer, unassigned) [Example D28]	0.7	0.4	–	1
C[C@H](NC1CC[C@H]1O)c1nc(C(F)(F)F)cc2c(-c3cccc([C@H](c4nncn4C)C4CCC4)c3)n[nH]c12 (single isomer, unassigned) [Example D30]	0.6	1.1	10	3
C[C@H](NC1CC(F)(F)C1)c1nc(C(F)(F)F)cc2c(-c3cccc([C@H](c4nncn4C)C4CCC4)c3)n[nH]c12 (single isomer, unassigned) [Example D90]	8.9	6.5	73	–
C[C@@H](NC1CC(F)(F)C1)c1nc(C(F)(F)F)cc2c(-c3cccc([C@H](c4nncn4C)C4CCC4)c3)n[nH]c12 (single isomer, unassigned) [Example D91]	6.2	6.3	41	–
Cn1cnnc1[C@@H](c1cccc(-c2n[nH]c3c(CN[C@H]4CCC(F)(F)C4)nc(C(F)(F)F)cc23)c1)C1CCC1 (single isomer, unassigned) [Example G1]	11	8	–	70
Cn1cnnc1[C@@H](c1cccc(-c2n[nH]c3cnc(C(F)(F)F)cc23)c1)C1CCC1 [Example A1, 3-{3-[(R)-cyclobutyl(4-methyl-4H-1,2,4-triazol-3-yl)methyl]phenyl}-5-(trifluoromethyl)-1H-pyrazolo[3,4-c]pyridine]	74.4	34.6	1810	> 2990
Cn1cnnc1CC1(c2cccc(-c3n[nH]c4cnc(C(F)(F)F)cc34)c2)COC1 [Example B1, 3-(3-(3-((4-methyl-4H-1,2,4-triazol-3-yl)methyl)oxetan-3-yl)phenyl)-5-(trifluoromethyl)-1H-pyrazolo[3,4-c]pyridine]	62.7	49.5	–	> 8710
Cn1cnnc1CC1(c2cccc(-c3n[nH]c4ncc(C(F)(F)F)cc34)c2)COC1 [Example B3, 3-(3-{3-[(4-methyl-4H-1,2,4-triazol-3-yl)methyl]oxetan-3-yl}phenyl)-5-(trifluoromethyl)-1H-pyrazolo[3,4-b]pyridine]	75.3	67.9	–	1710
Cn1cnnc1[C@@H](c1cccc(-c2n[nH]c3c(CN[C@@H]4CCC[C@@H]4O)nc(C(F)(F)F)cc23)c1)C1CCC1 [Example C1, (1S,2R)-2-({[3-{3-[(R)-cyclobutyl(4-methyl-4H-1,2,4-triazol-3-yl)methyl]phenyl}-5-(trifluoromethyl)-1H-pyrazolo[3,4-c]pyridin-7-yl]methyl}amino)cyclopentan-1-ol]	0.6	1.2	116	25
Cn1cnnc1[C@@H](c1cccc(-c2n[nH]c3c(CN[C@H]4CCC[C@@H]4O)nc(C(F)(F)F)cc23)c1)C1CCC1 [Example C4, (1S,2S)-2-({[3-{3-[(R)-cyclobutyl(4-methyl-4H-1,2,4-triazol-3-yl)methyl]phenyl}-5-(trifluoromethyl)-1H-pyrazolo[3,4-c]pyridin-7-yl]methyl}amino)cyclopentan-1-ol]	3.3	2.1	–	114
